Data on 7 molecules can be found in patent publication US20210177823A1, “NEUROMODULATING COMPOSITIONS AND RELATED THERAPEUTIC METHODS FOR THE TREATMENT OF CANCER” (Flagship Pioneering Innovations V, Inc., priority 2016, published 2021).

One experiment relates to MIAPaCa2 Fluc cells. The experiment is described as follows: Orthotopic MIAPACA2 pancreatic cancer model, tumor weight at end of study. The format is in vivo, Nude mice (Nu/Nu). Conditions: daily IP, three weeks after initiation of dosing; for reduction in tumor weight at the end of study: compared to vehicle-treated group. The procedure:
MIAPaCa2 Fluc cells were grown in DMEM tissue culture media with 10% fetal calf serum, 2.5% Horse Serum, 1% penicillin/streptomycin and Puromycin (20 ug/mL). On the day of implantation, cells were washed in PBS, trypsinized and resuspended at a density of 2×10^6 cells/ml in a Matrigel solution prior to being implanted into the pancreas a volume of 0.05 mL using a 25 G needle. Nude mice (Nu/Nu) were anesthetized and the pancreas exposed via peritoneal incision and physical displacement of the spleen. Cells were injected into the pancreas in a total volume of 0.05 mL and the surgical wound closed with VetBond. Bioluminescence was assessed by administration of D-luciferin and imaging on an IVIS system. Mice with leakage of bioluminescent signal immediately after surgery were removed from study. Mice were randomized into groups of equal mean bioluminescence approximately 14 days post-implant. […] One group of mice received haloperidol alone, a second group received gemcitabine chemotherapy (the standard of care for human pancreatic cancer treatment), and a third group received a combination of haloperidol and gemcitabine. For groups also receiving gemcitabine, gemcitabine was dosed 50 mg/kg IP daily. Tumor growth was determined bi-weekly with bioluminescent measurement. The study was terminated three weeks after initiation of drug dosing. At termination, mice were sacrificed and pancreas collected and weighed.

Experiment [1] relates to Glioblastoma lines A172, LN-18, T98G, LN-229, U87 MG, and U118 MG. Kind of experiment: Colony formation assay in glioblastoma cell lines (Cyto60 fluorescence). The format is cell-based. The conditions noted are these: 1 μM to 20 μM, day 9, LN-229, U87, U118. Here is the method: Glioblastoma lines A172, LN-18, T98G, LN-229, U87 MG, and U118 MG were passaged in culture per manufacturer's recommendations.
On day 0 of the experiment, cells were plated in 24 well plates at a density of 500 cells per well in triplicate. On day 1, DRD2 antagonists haloperidol and L741,626 were added to the wells at a range of concentrations between 1 μM and 20 μM. Media was changed every three days. On day 9 of the experiment, cells were fixed with formalin and stained with Cyto60 (a nucleic acid stain). Fluorescence was read on a Licor-Odyssey imager to assess the number of viable cells in the assay.

Experiment [2] concerns NCI-H82 small cell lung cancer cells. The experiment is described as follows: Cancer cell growth in low-serum spheroid culture, Cell Titer Glo readout. The format is cell-based. Conditions: at low micromolar concentration; tested 10 nM-10 uM. The procedure: (§1) Cancer cell lines were grown in appropriate cell culture medium. On day 0, cells were plated in black organogenix nanocult 96-well plates with low-bind honeycomb pattern. Cells were plated in a low serum medium to increase the dynamic range observable for growth promotion. Within three days spheroids were visible. On day 1 post plating, compounds were added at a range of doses to the cells, between mid-nanomolar and low micromolar, spanning at least a 100× dose range. On day 4 post plating, number of cells are quantified by staining with Cell Titer Glo and reading on a plate reader. We observed that adenosine at 10-200 μM enhances the growth of multiple pancreatic cancer cell lines (CFPAC, PANC-1, PL45, ASPC-1, CAPAN-1, CAPAN-2) by at least 10% increased signal over 24 hours than untreated cells. Upon follow-up of the adenosine pathway, we performed a similar assay with chemical antagonists of adenosine receptors at a range of concentrations between 10 nM-10 uM.
Background: Cellular ATP, detected with luciferase, serves as a proxy for viable cell number.

Experiment [3] has as its system pancreatic cancer cell lines (CFPAC, PANC-1, PL45, ASPC-1, CAPAN-1, CAPAN-2). Described as above. In kind it is cell-based. Conditions: adenosine at 10-200 μM, over 24 hours.
For experiment [4], the system named is patient-derived xenograft tumors from patient 5197. Kind of experiment: SCLC PDX subcutaneous tumor with implanted microdose drug delivery device, immunohistochemistry (CC3, phospho-AKT). The format is in vivo, nude mice. Conditions: intratumoral device reservoir, 24 hours in situ; patient 5197 PDX. The procedure:
(§2) Small cell lung cancer cells derived from a human donor (CrownBio, San Diego Calif.) were injected subcutaneously into the flanks of nude mice. Tumors were grown to a size of approximately 6-10 mm before device implantation.
(§3) Microdose drug delivery devices were manufactured as described in Jonas et al., Sci. Transl. Med. 7, 284ra57 (2015). Briefly, cylindrical, micro-scale devices with 0.82 (diameter)×4 mm (length) were manufactured from medical-grade Delrin acetyl resin blocks (DuPont) by micromachining (CNC Micromachining Center, Cameron). Circular reservoirs were shaped on the outer surface of devices in dimensions of 230 um (diameter)×250 um (depth). Drug-polymer mixtures were packed into device reservoirs using a tapered, metal needle (Electron Microscopy Sciences) until the reservoirs were completely filled.
Devices were implanted directly into the mouse tumor using a 19-gauge spinal biopsy needle (Angiotech) and a retractable needle obturator to push the device into the tissue. Devices containing the drugs remained in situ for 24 hours.
The flank tumor was excised and the tissue containing the device was fixed for 24 hours in 10% formalin and perfused with paraffin. This specimen was sectioned using a standard microtome and tissue sections were collected from each reservoir. Sections were antibody-stained by standard immunohistochemistry using antibodies against cleaved-caspase-3 (CC3), KI-67, and phospho-AKT (Cell Signaling) and scored using an ImageJ image (v1.48) analysis algorithm in a blinded manner.

In experiment [5] the test system is patient-derived xenograft tumors from patient 5217. Kind of experiment: SCLC PDX subcutaneous tumor with implanted microdose drug delivery device, immunohistochemistry. The format is in vivo, nude mice. The conditions noted are these: patient 5217 PDX, ~10× lower DRD2 mRNA than patient 5197; device 24 hours in situ. The procedure: as §2, §3
Devices were implanted directly into the mouse tumor using a 19-gauge spinal biopsy needle (Angiotech) and a retractable needle obturator to push the device into the tissue. […]
The flank tumor was excised and the tissue containing the device was fixed for 24 hours in 10% formalin and perfused with paraffin. […] Sections were antibody-stained by standard immunohistochemistry using antibodies against cleaved-caspase-3 (CC3), KI-67, and phospho-AKT (Cell Signaling) and scored using an ImageJ image (v1.48) analysis algorithm in a blinded manner.

Experiment [6] relates to BXPC3 pancreatic cancer cells. Kind of experiment: Cancer cell growth in low-serum spheroid culture, Cell Titer Glo readout. The format is cell-based. The conditions noted are these: at low micromolar concentration; tested 10 nM-10 uM. The procedure:
as §1

Entries after “also recorded” stand apart in the source; their conditions may differ.

`O=C(CCCN1CCC(O)(c2ccc(Cl)cc2)CC1)c1ccc(F)cc1` [haloperidol]: the “reduction in tumor weight at the end of study” value with MIAPaCa2 Fluc cells is given as roughly 50%. In addition, in the experiment with MIAPaCa2 Fluc cells (vehicle 300 mg), the “tumor weight at the end of study” value amounted to 150 mg. Besides, in experiment [1], the “number of glioblastoma cells growing in culture compared to DMSO control” value was “reduce the number of glioblastoma cells”.
Regarding `O=C(Cc1ccccc1)Nc1nc2ccc(Cl)cc2c2nc(-c3ccco3)nn12` [MRS-1220], in experiment [2], the “inhibition of growth of NCI-H82 small cell lung cancer cells” value is “inhibited the growth”.
With `Nc1ncnc2c1ncn2[C@@H]1O[C@H](CO)[C@@H](O)[C@H]1O` [adenosine], the “enhancement of growth, increased signal than untreated cells” value in experiment [3] was “at least 10%”.
Turning to `Nc1ccn([C@@H]2O[C@H](CO)[C@@H](O)C2(F)F)c(=O)n1` [gemcitabine], the “reduction in tumor weight at the end of study” value in the experiment on MIAPaCa2 Fluc cells was “equivalent”.
In the case of `OC1(c2ccc(Cl)cc2)CCN(Cc2c[nH]c3ccccc23)CC1` [L-741,626], in experiment [4], the “cell killing as measured by CC3 positive tissue” value is “dose-dependent cell killing” and the “phospho-AKT staining gradient (dopamine receptor signaling)” value was “negative gradient”. In experiment [5], the “impact of treatment on tumor” value is “at all not impacted; also recorded: not impacted at all”. The “number of glioblastoma cells growing in culture compared to DMSO control” value in experiment [1] is given as “reduce the number of glioblastoma cells”.
As for `N.N.[Cl][Pt][Cl]` [cisplatin], the “cell killing as measured by CC3 positive tissue” value in experiment [4] is on record as “minimal cell killing”.
`CCCn1c(=O)c2[nH]c(C34CC5CC(CC3C5)C4)nc2n(CCC)c1=O` [KW3902]: the “inhibition of growth of BXPC3 pancreatic cancer cells” value in experiment [6] is listed as “inhibited the growth”. In addition, the “inhibition of growth of NCI-H82 small cell lung cancer cells” value in experiment [2] is “inhibited the growth”.
